Data reported in patent US20220023306A1, “USE OF A PPAR-DELTA AGONIST IN THE TREATMENT OF FATTY ACID OXIDATION DISORDERS (FAOD)” (Reneo Pharmaceuticals, Inc., priority 2019, published 2022).

Columns and labels:
Format in all cases: cell-based
hPPARδ = target: T1, hPPARδ (Homo sapiens, UniProt Q03181); test: PPAR transient transactivation assay, hPPARδ
T1 construct: is generated by PCR (PPARδ: aa 128-C-terminus); expressed in transfected cells; host or cells: HEK293
T1 sequence (Q03181 128-441 limits assumed): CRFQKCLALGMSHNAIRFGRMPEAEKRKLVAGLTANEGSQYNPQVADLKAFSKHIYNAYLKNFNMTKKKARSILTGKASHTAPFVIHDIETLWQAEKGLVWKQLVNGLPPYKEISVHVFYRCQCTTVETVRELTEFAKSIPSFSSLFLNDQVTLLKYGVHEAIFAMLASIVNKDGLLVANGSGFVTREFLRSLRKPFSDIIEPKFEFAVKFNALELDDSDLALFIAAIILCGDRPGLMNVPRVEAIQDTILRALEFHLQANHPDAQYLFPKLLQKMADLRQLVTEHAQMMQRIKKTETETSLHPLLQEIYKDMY
Experimental: (§1) “Activation” herein is defined as the abovementioned downstream response, which in the case of PPAR's is gene transcription. Gene transcription, in some cases, is measured indirectly as downstream production of proteins reflective of the activation of the particular PPAR subtype under study. Alternatively, an artificial reporter construct, in some cases, is employed to study the activation of the individual PPAR's expressed in cells. The ligand binding domain of the particular receptor to be studied, in some embodiments, is fused to the DNA binding domain of a transcription factor, which produces convenient laboratory readouts, such as the yeast GAL4 transcription factor DNA binding domain. The fusion protein, in some cases, is transfected into a laboratory cell line along with a Gal4 enhancer, which effects the expression of the luciferase protein. When such a system is transfected into a laboratory cell line, binding of a receptor agonist to the fusion protein will result in light emission.
The PPAR transient transactivation assay, in some cases, is based on transient transfection into human HEK293 cells of two plasmids encoding a chimeric test protein and a reporter protein respectively. The chimeric test protein, in some cases, is a fusion of the DNA binding domain (DBD) from the yeast GAL4 transcription factor to the ligand binding domain (LBD) of the human PPAR proteins. The PPAR-LBD moiety harbored in addition to the ligand binding pocket also has the native activation domain, allowing the fusion protein to function as a PPAR ligand dependent transcription factor. The GAL4 DBD will direct the chimeric protein to bind only to Gal4 enhancers (of which none existed in HEK293 cells). The reporter plasmid contained a Gal4 enhancer driving the expression of the firefly luciferase protein. After transfection, HEK293 cells expressed the GAL4-DBD-PPAR-LBD fusion protein. […] The amount of luciferase protein is measured by light emission after addition of the appropriate substrate. […]

hPPARγ = target: T2, hPPARγ (Homo sapiens, UniProt P37231); test: PPAR transient transactivation assay, hPPARγ
T2 construct: expressed in transfected cells; host or cells: HEK293
T2 sequence (P37231 238-503 limits assumed): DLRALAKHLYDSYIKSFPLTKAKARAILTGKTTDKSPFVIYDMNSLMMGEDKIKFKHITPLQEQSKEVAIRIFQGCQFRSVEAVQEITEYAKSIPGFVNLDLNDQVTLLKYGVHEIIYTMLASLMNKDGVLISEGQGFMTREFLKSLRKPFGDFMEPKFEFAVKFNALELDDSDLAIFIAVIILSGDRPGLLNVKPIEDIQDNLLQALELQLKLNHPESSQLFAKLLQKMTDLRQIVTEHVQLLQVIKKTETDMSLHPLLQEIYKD
Experimental: as §1
The PPAR transient transactivation assay, in some cases, is based on transient transfection into human HEK293 cells of two plasmids encoding a chimeric test protein and a reporter protein respectively. […] The amount of luciferase protein is measured by light emission after addition of the appropriate substrate. […]

[1] = system: human retinoid X receptor (hRXR); test: human retinoid X receptor (hRXR) activity
LXRα = target: T3, LXRα (Homo sapiens, UniProt Q13133); test: activity on nuclear receptor LXRα
T3 sequence (Q13133 1-447): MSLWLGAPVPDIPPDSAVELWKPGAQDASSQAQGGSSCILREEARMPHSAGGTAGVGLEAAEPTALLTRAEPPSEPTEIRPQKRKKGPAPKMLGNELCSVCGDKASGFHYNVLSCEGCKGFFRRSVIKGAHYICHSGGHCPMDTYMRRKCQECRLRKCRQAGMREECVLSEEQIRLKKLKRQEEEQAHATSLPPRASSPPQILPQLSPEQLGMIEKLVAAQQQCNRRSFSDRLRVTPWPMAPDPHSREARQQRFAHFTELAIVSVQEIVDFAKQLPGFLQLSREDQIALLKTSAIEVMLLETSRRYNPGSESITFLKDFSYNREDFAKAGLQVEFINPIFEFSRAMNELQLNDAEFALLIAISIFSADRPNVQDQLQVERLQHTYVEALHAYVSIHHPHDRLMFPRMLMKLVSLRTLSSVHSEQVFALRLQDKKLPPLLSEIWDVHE

Compound: Cc1cc(OC/C=C(/c2ccc(F)cc2)c2ccc(C#CCN3CCOCC3)cc2)ccc1OCC(=O)O [Compound 1, (E)-[4-[3-(4-Fluorophenyl)-3-[4-[3-(morpholin-4-yl)propynyl]phenyl]allyloxy]-2-methyl-phenoxy]acetic acid]
- type of agonism on PPARδ (hPPARδ): full agonist
- selectivity for PPARδ over PPARα (hPPARδ; PPARδ over PPARα, human PPAR subtypes in vitro): at least 100 fold
- selectivity for PPARδ over PPARγ (hPPARδ; PPARδ over PPARγ, human PPAR subtypes in vitro): at least 400 fold
- activity on PPARγ in transactivation assays (hPPARγ): negligible activity
- type of agonism on PPARγ (hPPARγ): partial agonist
- hRXR activity [1]: did not show any
- activity on LXRα (LXRα): did not show any
